Reference: the supplement of paper PMC11208160

Assay: recombinant UMI read abundance after kanamycin selection (control-corrected) (log10(CPM+1)); higher = more efficient recombination; extreme values may be limits of the assay; sequences stand for … in AGTGCAGAGAAAATCGGCCAGTTTTCTCTGCCTGCAGTCCGCATGCCGTGGGACCCCTTGGGTTCTAACCTGTTGCCTAGATTTATGCAGCGGACTGCCTTTCTCCCAAAGTGATAAACCGG…AGGTTGGTTTCACT; site = the 11-nt donor
Summary of the method: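 Reported values are log10(CPM+1) from a pooled Escherichia coli screen of donor and donor-binding-loop pairs for the IS621 bridge recombinase. Selection used IPTG (0.07 mM) plus kanamycin, against unselected plating, each in two replicates. Recombinant UMIs were amplified across the donor–target junction, sequenced, converted to CPM, averaged over replicates and scaled by control-derived factors.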
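Note: IS621 bridge recombinase in Escherichia coli cells against a fixed T5 target plasmid.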

| Sequence | recombinant UMI read abundance (log10) |
| --- | --- |
| CACTGGGCATGGACCGGTTTTCCCGGTAATCCGTATTTGGA (site CACTCGGCTTC) | 0.0182 |
| CACTGGGCATGGACCGGTTTTCCCGGTAATCCGTATTTGGA (site CACTGGGCTTC) | 1.12 |
| CACTGGGCATGGACCGGTTTTCCCGGTAATCCGTATTTGGA (site CACTTGGCTTC) | 0.0159 |
| CACTTAACATGGACCGGTTTTCCCGGTAATCCGTATTTGCC (site CACTTAACTGG) | 0.774 |
| CACTTCCCATGGACCGGTTTTCCCGGTAATCCGTATTTGCT (site CAATTCCCTAG) | 0 |
| CACTTCCCATGGACCGGTTTTCCCGGTAATCCGTATTTGCT (site CACTTCCCTAG) | 0.617 |
| CACTTCCCATGGACCGGTTTTCCCGGTAATCCGTATTTGCT (site CAGTTCCCTAG) | 0.521 |
| CACTTCCCATGGACCGGTTTTCCCGGTAATCCGTATTTGCT (site CATTTCCCTAG) | 0 |
| CACTTCTCATGGACCGGTTTTCCCGGTAATCCGTATTTGGG (site CACTTCTCTCC) | 0.00463 |
| CACTTCTCATGGACCGGTTTTCCCGGTAATCCGTATTTGGG (site CCCTTCTCTCC) | 0.00683 |
| CACTTCTCATGGACCGGTTTTCCCGGTAATCCGTATTTGGG (site CGCTTCTCTCC) | 0 |
| CACTTCTCATGGACCGGTTTTCCCGGTAATCCGTATTTGGG (site CTCTTCTCTCC) | 0 |
| CACTTGACATGGACCGGTTTTCCCGGTAATCCGTATTTGCT (site AACTTGACTAG) | 0 |
| CACTTGACATGGACCGGTTTTCCCGGTAATCCGTATTTGCT (site CACTTGACTAG) | 2.31 |
| CACTTGACATGGACCGGTTTTCCCGGTAATCCGTATTTGCT (site GACTTGACTAG) | 0 |
| CACTTGACATGGACCGGTTTTCCCGGTAATCCGTATTTGCT (site TACTTGACTAG) | 0.365 |
| CAGAAGCCATGGACCGGTTTTCCCGGTAATCCGTATTTGGT (site CAGAAGCCTAC) | 0.535 |
| CAGAAGCCATGGACCGGTTTTCCCGGTAATCCGTATTTGTT (site CAGAAGCCTAA) | 1.14 |
| CAGAAGCCATGGACCGGTTTTCCCGGTAATCCGTATTTGTT (site CGGAATCCTAA) | 0 |
| CAGAATACATGGACCGGTTTTCCCGGTAATCCGTATTTGTT (site CAGAATACTAA) | 2.12 |
| CAGAATACATGGACCGGTTTTCCCGGTAATCCGTATTTGTT (site CGGAATCCTAA) | 0 |
| CAGAATTCATGGACCGGTTTTCCCGGTAATCCGTATTTGGA (site CAGAATTCTTC) | 3.34 |
| CAGATACCATGGACCGGTTTTCCCGGTAATCCGTATTTGGA (site CAGATACCTTC) | 0.0326 |
| CAGCACGCATGGACCGGTTTTCCCGGTAATCCGTATTTGCA (site CAGCACGCTTG) | 2.58 |
| CAGCTCACATGGACCGGTTTTCCCGGTAATCCGTATTTGAT (site AAGCTCACTAT) | 0.444 |

| Sequence | recombinant UMI read abundance (log10) |
| --- | --- |
| CAGCTCACATGGACCGGTTTTCCCGGTAATCCGTATTTGAT (site CAGCTCACTAT) | 2.31 |
| CAGCTCACATGGACCGGTTTTCCCGGTAATCCGTATTTGAT (site GAGCTCACTAT) | 0.00621 |
| CAGCTCACATGGACCGGTTTTCCCGGTAATCCGTATTTGAT (site TAGCTCACTAT) | 0.404 |
| CAGCTCGCATGGACCGGTTTTCCCGGTAATCCGTATTTGAC (site CAGCTCGCTGT) | 2.55 |
| CAGGAAACATGGACCGGTTTTCCCGGTAATCCGTATTTGCA (site CAGGAAACTTG) | 1.79 |
| CAGGAAACATGGACCGGTTTTCCCGGTAATCCGTATTTGCA (site CCGGAAACTTG) | 0 |
| CAGGAAACATGGACCGGTTTTCCCGGTAATCCGTATTTGCA (site CGGGAAACTTG) | 0 |
| CAGGAAACATGGACCGGTTTTCCCGGTAATCCGTATTTGCA (site CTGGAAACTTG) | 2.49 |
| CAGGAATCATGGACCGGTTTTCCCGGTAATCCGTATTTGCA (site CAGGAATCTTG) | 3.17 |
| CAGGAATCATGGACCGGTTTTCCCGGTAATCCGTATTTGCG (site AAGGAATCTCG) | 1.51 |
| CAGGAATCATGGACCGGTTTTCCCGGTAATCCGTATTTGCG (site CAGGAATCTCG) | 3.26 |
| CAGGAATCATGGACCGGTTTTCCCGGTAATCCGTATTTGCG (site GAGGAATCTCG) | 0.395 |
| CAGGAATCATGGACCGGTTTTCCCGGTAATCCGTATTTGCG (site TAGGAATCTCG) | 2.69 |
| CAGGACTCATGGACCGGTTTTCCCGGTAATCCGTATTTGTT (site CAGGACTCTAA) | 2.96 |
| CAGGCATCATGGACCGGTTTTCCCGGTAATCCGTATTTGTC (site CAGGCATCTGA) | 2.76 |
| CAGGCGTCATGGACCGGTTTTCCCGGTAATCCGTATTTGGA (site CAGGCGTCTTC) | 1.89 |
| CAGGGCCCATGGACCGGTTTTCCCGGTAATCCGTATTTGTG (site CAGGGCCCTCA) | 0.282 |
| CAGGGTGCATGGACCGGTTTTCCCGGTAATCCGTATTTGGT (site CAGGGTGCTAC) | 1.49 |
| CAGTACACATGGACCGGTTTTCCCGGTAATCCGTATTTGCT (site CAGTACACTAG) | 2.43 |
| CAGTCAACATGGACCGGTTTTCCCGGTAATCCGTATTTGTG (site CAGTCAACTCA) | 0.0625 |
| CAGTCGACATGGACCGGTTTTCCCGGTAATCCGTATTTGCG (site CAGTCGACTCA) | 0 |
| CAGTCGACATGGACCGGTTTTCCCGGTAATCCGTATTTGCG (site CAGTCGACTCC) | 0 |
| CAGTCGACATGGACCGGTTTTCCCGGTAATCCGTATTTGCG (site CAGTCGACTCG) | 0.869 |
| CAGTCGACATGGACCGGTTTTCCCGGTAATCCGTATTTGCG (site CAGTCGACTCT) | 0.00924 |
| CAGTCGACATGGACCGGTTTTCCCGGTAATCCGTATTTGGC (site CAGTCGACTAC) | 0.105 |

| Sequence | recombinant UMI read abundance (log10) |
| --- | --- |
| CAGTCGACATGGACCGGTTTTCCCGGTAATCCGTATTTGGC (site CAGTCGACTCC) | 0.00601 |
| CAGTCGACATGGACCGGTTTTCCCGGTAATCCGTATTTGGC (site CAGTCGACTGC) | 1.37 |
| CAGTCGACATGGACCGGTTTTCCCGGTAATCCGTATTTGGC (site CAGTCGACTTC) | 0.0416 |
| CAGTCGCCATGGACCGGTTTTCCCGGTAATCCGTATTTGGG (site CAGTCGACTCC) | 0.0111 |
| CAGTCGCCATGGACCGGTTTTCCCGGTAATCCGTATTTGGG (site CAGTCGCCTCC) | 0.0028 |
| CAGTCGCCATGGACCGGTTTTCCCGGTAATCCGTATTTGGG (site CAGTCGGCTCC) | 0.0208 |
| CAGTCGCCATGGACCGGTTTTCCCGGTAATCCGTATTTGGG (site CAGTCGTCTCC) | 0 |
| CAGTCGGCATGGACCGGTTTTCCCGGTAATCCGTATTTGCT (site CAGTCGGCTAG) | 0.438 |
| CAGTGGACATGGACCGGTTTTCCCGGTAATCCGTATTTGTG (site CAGTGGACTCA) | 1.57 |
| CAGTTTACATGGACCGGTTTTCCCGGTAATCCGTATTTGCT (site CAGTTTACTAG) | 2.07 |
| CAGTTTACATGGACCGGTTTTCCCGGTAATCCGTATTTGCT (site CCGTTTACTAG) | 0.978 |
| CAGTTTACATGGACCGGTTTTCCCGGTAATCCGTATTTGCT (site CGGTTTACTAG) | 0 |
| CAGTTTACATGGACCGGTTTTCCCGGTAATCCGTATTTGCT (site CTGTTTACTAG) | 0.662 |
| CATACACCATGGACCGGTTTTCCCGGTAATCCGTATTTGTA (site CATACACCTTA) | 0.00749 |
| CATACAGCATGGACCGGTTTTCCCGGTAATCCGTATTTGTG (site CATACAGCTCA) | 1.18 |
| CATAGCGCATGGACCGGTTTTCCCGGTAATCCGTATTTGTC (site CATAGCGCTGA) | 2.99 |
| CATAGTCCATGGACCGGTTTTCCCGGTAATCCGTATTTGAA (site CATAGTCCTTT) | 0.981 |
| CATCAGTCATGGACCGGTTTTCCCGGTAATCCGTATTTGGT (site CATCAGTCTAC) | 2.17 |
| CATCCATCATGGACCGGTTTTCCCGGTAATCCGTATTTGGG (site CATCCATCTCC) | 0.0148 |
| CATCCCTCATGGACCGGTTTTCCCGGTAATCCGTATTTGTA (site CATCCCTCTTA) | 3.33 |
| CATCGTACATGGACCGGTTTTCCCGGTAATCCGTATTTGGT (site AGAGTGGCTTA) | 0.00765 |
| CATCTGTCATGGACCGGTTTTCCCGGTAATCCGTATTTGGG (site CATCTGTCTCC) | 0.559 |
| CATGACTCATGGACCGGTTTTCCCGGTAATCCGTATTTGTC (site CATGACTCTGA) | 1.71 |
| CATGCACCATGGACCGGTTTTCCCGGTAATCCGTATTTGAC (site CATGCACCTGT) | 0 |
| CATGCAGCATGGACCGGTTTTCCCGGTAATCCGTATTTGCT (site CAAGCAGCTAG) | 0.856 |
